Data set [1] addresses T1, central muscarinic M-1 receptors (Rattus norvegicus, UniProt P08482).
T1 sequence (P08482 1-460): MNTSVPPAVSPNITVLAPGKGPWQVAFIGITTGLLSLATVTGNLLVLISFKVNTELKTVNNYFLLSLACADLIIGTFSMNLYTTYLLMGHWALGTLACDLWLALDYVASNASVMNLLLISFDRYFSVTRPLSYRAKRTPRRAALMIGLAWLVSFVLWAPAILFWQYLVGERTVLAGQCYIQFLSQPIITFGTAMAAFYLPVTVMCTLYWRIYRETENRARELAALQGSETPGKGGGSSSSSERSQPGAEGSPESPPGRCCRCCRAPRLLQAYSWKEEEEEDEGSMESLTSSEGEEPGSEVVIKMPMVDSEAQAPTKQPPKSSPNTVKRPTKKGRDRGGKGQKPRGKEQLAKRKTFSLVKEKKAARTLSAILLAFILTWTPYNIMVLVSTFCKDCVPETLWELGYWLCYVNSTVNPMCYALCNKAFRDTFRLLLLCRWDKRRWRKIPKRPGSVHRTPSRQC
Nature of the data set: biochemical. The data set is classed as binding. Conditions: rat brain homogenate, 1.0 nM 3H-pirenzepine, 60 min at 25° C. As to the method: ^3 H-pirenzepine binding was performed essentially as described by Watson et al., 1983, the conditions being very much the same as for ^3 H-oxotremorine binding, except that aliquots were incubated with 1.0 nM ^3 H-pirenzepine for 60 min. at 25° C. and that the reaction was stopped by direct filtration followed by 3 washes with 4 ml buffer.

In data set [2] the target is central cholinergic receptors. Nature of the data set: 3H-oxotremorine M binding (displacement from rat brain homogenates). To be noted: rat brain homogenate, 40 min at 30° C., pH 7.4, read-out: 3H-Oxo-M IC50. As to the method:
The new compounds have high affinity to central cholinergic receptors, as measured by the ability of the compounds to displace tritiated oxotremorine-M from rat brain homogenates. The compounds have also high affinity to central muscarinic M-1 receptors, as defined by their ability to displace tritiated pirenzepine from rat brain homogenates. […]
^3 H-oxotremorine M binding was performed essentially as described by Birdsdall et al., 1980. Briefly, rat brains were homogenized in 100 vol (w/v) 10 mM Na,K-phosphate buffer (pH 7.4) and aliquots incubated with ^3 H-oxotremorine M (84.9 Ci/mmol, NEN) alone or in the presence of test compound in a total volume of 1.5 ml for 40 min. at 30° C. The reaction was stopped by adding 5 ml ice-cold buffer and filtered through Whatman GF/B filters soaked previously in 0.1% polyethylenimin (Sigma) for minimum 30 min. The filters were washed once with the same volume of buffer, transferred to scintillation vials and extracted in scintillation fluid (Pico-fluor 15, Packard) for at least two hours before counted in a liquid scintillation spectrometer (Beckman LS 1800). Non-specific binding was estimated at 10 μM atropine and all estimations made in triplicate. At least two displacement curves were made for each compound tested.

The conditions of data set [3]: after peripheral administration; cited from earlier work.
For data set [4] the following is noted: cited from earlier work.
For data set [5] the following is noted: after peripheral administration; cited from earlier work. The source holds these as a separate data set.

Here are results for 13 molecules from patent US4923880A, “4,5,6,7-Tetrahydroisothiazolo (4,5-c) pyridine derivatives” (H. Lundbeck A/S, priority 1988, dated 1990).

Where a name gives a salt, the structure may show the parent alone. Read-outs that look alike come from different tables or passages of the source.

A word on the IC50: it is the midpoint of a concentration-inhibition curve.

Take `C#CCOc1nsc2c1CN(C)CC2C` (single isomer, unassigned; (+)) [Compound 23, (+)-5,7-Dimethyl-3-(2-propynyloxy)-4,5,6,7-tetrahydroisothiazolo[4,5-c]pyridine, oxalate]: the 50% inhibitory concentration (IC50) in data set [1] stood at 14 nM; in data set [2] (oxalate), 18 nM.

As to `C#CCOc1nsc2c1CNCC2C` (single isomer, unassigned; (-)) [Compound 21, (-)-7-Methyl-3-(2-propynyloxy)-4,5,6,7-tetrahydroisothiazolo[4,5-c]pyridine, fumarate], the results for the half-inhibitory concentration (IC50) in data set [1] and in data set [2] (fumarate) were 8.1 nM and 0.93 nM, respectively.

Take `C=CCOc1nsc2c1CNCC2C` (stereo not drawn) [Compound 25, (-+)-7-Methyl-3-(2-propenyloxy)-4,5,6,7-tetrahydroisothiazolo[4,5-c]pyridine, fumarate]: the concentration for half-maximal inhibition (IC50) in data set [1] is 11 nM; in data set [2], 5.3 nM.

Consider `C#CCOc1noc2c1CNCC2C` (single isomer, unassigned; (+)) [(+)-O-propargyl-7-Me-THPO, (+)7-methyl-3-(2-propynyloxy)-4,5,6,7-tetrahydroisoxazolo[4,5c]pyridine, reference compound], for which the IC50 in data set [1] turned out to be 61 nM; in data set [2], 18 nM.

Regarding `C#CCOc1nsc2c1CN(C)CC2C` (single isomer, unassigned; (-)) [Compound 24, (-)-5,7-Dimethyl-3-(2-propynyloxy)-4,5,6,7-tetrahydroisothiazolo[4,5-c]pyridine, oxalate], the concentration for half-maximal inhibition (IC50) is 4.3 nM in data set [1] and 3.8 nM in data set [2] (oxalate).

As for `C#CCOc1nsc2c1CN(C)CC2C` (stereo not drawn) [Compound 22, (-+)-5,7-Dimethyl-3-(2-propynyloxy)-4,5,6,7-tetrahydroisothiazolo[4,5-c]pyridine, oxalate], the IC50 in data set [1] amounted to 6.7 nM; in data set [2], 5.3 nM.

Regarding `C#CCOc1nsc2c1CNCC2` [Compound 8, 3-(2-Propynyloxy)-4,5,6,7-tetrahydroisothiazole[4,5-c]pyridine, hemifumarate], the half-maximal inhibitory concentration (IC50) in data set [1] amounted to 53 nM; in data set [2], 6.3 nM.

In the case of `COC(=O)C1=CCCN(C)C1` [Arecoline, methyl 1-methyl-1,2,5,6-tetrahydropyridine-3-carboxylate], the central effects result in data set [3] was “very weak and frequently negligible central effects”. The “hydrolysis of the ester group in vivo” value in data set [4] was “very rapidly hydrolyzed in vivo”. In addition, the “penetration of the BBB” value in data set [5] is recorded as “capable of penetrating the BBB after peripheral administration”. For the same molecule, the IC50 in data set [2] was 1.9 nM.

Regarding `COc1nsc2c1CNCC2` [Compound 3, 3-Methoxy-4,5,6,7-tetrahydroisothiazole[4,5-c]pyridine Hydrochloride], the 50% inhibitory concentration (IC50) in data set [1] stood at 1700 nM; in data set [2] it was 18 nM.

As for `C#CCOc1nsc2c1CNCC2C` (stereo not shown) [Compound 19, 7-Methyl-3-(2-propynyloxy)-4,5,6,7-tetrahydroisothiazolo[4,5-c]pyridine, fumarate], the IC50 in data set [1] came out at 6.9 nM; in data set [2], 1.8 nM.

With `CCOc1nsc2c1CNCC2` [Compound 5, 3-Ethoxy-4,5,6,7-tetrahydroisothiazolo[4,5-c]pyridine, maleate], the IC50 in data set [1] came out at 370 nM; in data set [2], 29 nM.

For `C#CCOc1nsc2c1CNCC2C` (single isomer, unassigned; (+)) [Compound 20, (+)-7-Methyl-3-(2-propynyloxy)-4,5,6,7-tetrahydroisothiazolo[4,5-c]pyridine, fumarate], the half-maximal inhibitory concentration (IC50) in data set [1] was 5.5 nM; in data set [2] (fumarate) it was 1.6 nM.

Turning to `COc1nsc2c1CNCC2C` (stereo not shown) [Compound 18, 3-Methoxy-7-methyl-4,5,6,7-tetrahydroisothiazolo[4,5-c]pyridine, fumarate], the IC50 in data set [1] is 130 nM; in data set [2], 24 nM.
